Test results from patent US7662968B2, “Process for preparing lansoprazole” (KRKA tovarna zdravil, d.d.., priority 2005, dated 2010).
“And” between values parts separate entries of the source, which are not always exact repeats. Equal values may be shown once.

How the values were obtained:
[1] = BET-surface area determination (nitrogen desorption, BET FlowSorb II 2300); assay type: physicochemical; details: 30 vol. % nitrogen / 70 vol. % helium at 77 K
Protocol: Unless otherwise noted, the BET-surface areas of the produced lansoprazole are determined by calculation from desorption data of nitrogen obtained on a BET FlowSorb II 2300 (Micromeritics Instrument Corp., USA) using a mixture of 30 vol. % nitrogen and 70 vol. % helium at 77 K.

[2] = Release of lansoprazole from pellets (dissolution, Ph. Eur. Paddle method); assay type: physicochemical; details: paddle 100 rpm, after one hour in artificial gastric juice pH 1.2, FIG. 1; for release of lansoprazole from pellets (comparison in words): phosphate buffer pH 6.8, 37° C.
Protocol: The release of lansoprazole was spectrophotometrically determined using Hewlett Packard 8452 A Diode array spectrophotometer and automatic sampling system Multicell Transport System. Dissolution profiles were obtained at 37° C. using 900 ml phosphate buffer solution having pH 6.8 and Ph. Eur. Paddle method (100 rpm). Before analysis, the pellet samples were treated with artificial gastric juice (500 ml) having a pH of 1.2 for one hour, washed and quantitatively transferred into the phosphate buffer. […] Preferably more than 80%, more preferably more than 85% and most preferred more than 90% of lansoprazole are released from the compositions according to the invention within 30 minutes.
If a lansoprazole prepared according to example 4 having a BET-surface area of 4.76 m^2/g is used, more than 90% of the drug is released within the first 30 minutes (upper curve).

[3] = lansoprazole form A as obtained after purification and drying

BET-surface area [1, 3] | BET-surface area ([1]; lansoprazole form A further milled) | release of lansoprazole from pellets (comparison in words) [2] | drug released ([2]; pellets prepared according to Example 8, within the first 30 minutes, 900 ml phosphate buffer pH 6.8, 37° C.) | release of lansoprazole from pellets (comparison in words) ([2]; listed as lansoprazole having a BET-surface area of 4.67 m^2/g) | SMILES
0.25 m^2/g | 0.87 m^2/g | clearly smaller release |  |  | Cc1c(OCC(F)(F)F)ccnc1C[S+]([O-])c1nc2ccccc2[nH]1 (centres unmarked) [Example 3, 2-[[[3-methyl-4-(2,2,2-trifluoroethoxy)-2-pyridinyl]methyl]sulfinyl]-1H-benzimidazole]
4.67 m^2/g and 4.76 m^2/g |  |  | more than 90% | clearly faster | Cc1c(OCC(F)(F)F)ccnc1C[S+]([O-])c1nc2ccccc2[nH]1 (centres unmarked) [Example 4, 2-[[[3-methyl-4-(2,2,2-trifluoroethoxy)-2-pyridinyl]methyl]sulfinyl]-1H-benzimidazole]
1.0 m^2/g and 1.00 m^2/g |  | clearly smaller release |  |  | Cc1c(OCC(F)(F)F)ccnc1C[S+]([O-])c1nc2ccccc2[nH]1 (centres unmarked) [Example 5, 2-[[[3-methyl-4-(2,2,2-trifluoroethoxy)-2-pyridinyl]methyl]sulfinyl]-1H-benzimidazole]
